Data on 2 compounds can be found in EP0060099A1, “Antiviral agents, their preparation and use” (BEECHAM GROUP PLC, priority 1981, dated 1982).

Values after ≈ are worked out from the molar mass of the structure shown.

The test system of data set [1] is Herpes simplex type 1 virus (HFEM strain). The data set is described as follows: Plaque reduction test in Vero cells infected with Herpes simplex type 1 virus. The following applies: Human alphaherpesvirus 1, 144 h, concentration causing a 50% reduction in the number of virus plaques formed, agarose overlay, 37°C for 6 days, read-out: PDD50 (the source's name). Type of data set: cell-based. As for the experimental part: (§1) Vero (African Green Monkey Kidney) cells were grown to confluence in 6 well multidishes, each well being 3.5 cm in diameter'. The cells were incubated with Herpes simplex type 1 virus (HFEM strain) and overlaid with 0.5 mL of 0.9% agarose (w/v) in maintenance medium containing the test compound at a range of concentrations from […] in half-log dilution steps. The virus infected cultures were then incubated at 37°C for 6 days before fixing in 4% formaldehyde solution and staining with carbolfuchsin. The dishes were then examined to find that concentration of test compound causing a 50% reduction in the number of virus plaques formed (PDD50 value) and the minimum concentration of test compound which killed the cell monolayer, leaving a clear zone devoid of cells and virus plaques (MTD).

The nature of data set [2]: Toxicity to the cell monolayer in the plaque reduction test (MTD). Type of data set: cell-based, African Green Monkey. The following applies: monkey, vero cells; minimum concentration which killed the cell monolayer; virus infected Vero cultures, 37°C for 6 days. As for the experimental part: as §1

Turning to `O=c1nc2n(cc1/C=C/Br)[C@H]1C[C@H](O)[C@@H](CO2)O1` [1 (b), 2,5'-Anhydro-E-5-(2-bromovinyl)-2'-deoxyuridine], in data set [1], the IC50 is 2.8 µg/mL (≈ 8.89 µM). Moreover, the MCC at 144 h in data set [2] was above 50 µg/mL.
For `CC(=O)OC1CC2OC1COc1nc(=O)c(C=CBr)cn12` (stereo not shown) [2 (b), 3'-0-Acetyl-2,5'-anhydro-E-5-(2-bromovinyl)-2'-deoxyuridine] the same measures were 13.5 µg/mL (≈ 37.8 µM) and above 100 µg/mL.
